Test results reported in PMC10439952, “JT002, a small molecule inhibitor of the NLRP3 inflammasome for the treatment of autoinflammatory disorders” (Scientific Reports, 2023).
Where two headings read alike, the source gives them in different places.

Columns and labels:
caspase-1 = target: T1, caspase-1 (Homo sapiens, UniProt P29466); test: Cell-free biochemical caspase-1 assay
T1 construct: Reaction Biology Corporation (assay run there as a service)
T1 sequence (P29466 120-297 limits assumed): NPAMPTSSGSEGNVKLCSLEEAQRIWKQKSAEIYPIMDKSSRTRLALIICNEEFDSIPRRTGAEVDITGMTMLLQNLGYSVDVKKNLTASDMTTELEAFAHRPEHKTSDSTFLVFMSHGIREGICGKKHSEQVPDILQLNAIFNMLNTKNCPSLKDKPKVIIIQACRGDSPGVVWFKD
T1 sequence (P29466 317-404 limits assumed): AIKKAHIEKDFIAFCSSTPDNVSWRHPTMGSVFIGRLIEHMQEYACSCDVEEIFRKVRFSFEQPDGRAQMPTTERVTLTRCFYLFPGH
Protocol: Cell viability was determined by addition of an equal volume of CellTiter-Glo® 2.0 reagent (Promega) to the remaining cells/supernatant in each well. Intracellular Caspase-1 activity was measured using the Caspase-Glo® assay (Promega) according to the manufacturer’s instructions. The biochemical capsase-1 assay was conducted at Reaction Biology Corporation (Malvern, USA). Human IL-1β, IL-1α, and TNFα and mouse IL-1β were measured in cell culture supernatants using homogeneous time resolved fluorescence assay kits (HTRF, Cisbio, Codolet, France). Human IL-18 was measured in cell culture supernatants using an ELISA kit (R&D Systems, Minneapolis, MN, USA). Plasma IL-1β concentrations were determined by Quantikine® ELISA (R&D Systems, Minneapolis, MN).

[1] = Pharmacokinetics in male Beagle dogs after i.v. and p.o. administration; assay type: in vivo; conditions: plasma, Dog
Protocol: The pharmacokinetics (PK) of JT002 were assessed in male Sprague–Dawley rats and male Beagle dogs after intravenous (i.v.) and oral (p.o.) administration (Table 2). […] In dogs, a maximum drug plasma concentration (Cmax) of 4.0 µg/mL (9 µM) was reached 1 h after a single 1 mg oral dose. Dose-adjusted exposures (dose-adjusted AUC) from oral administration were close to identical between rat and dog (11.8 versus 11.6) (Table 2).

[2] = tested on: OVA sensitized, OVA challenged and iTreg transferred CD8α-/- mice; test: Murine model of iTreg induced IL-17-dependent neutrophilic asthma; assay type: in vivo, mouse
Protocol: In an allergen-dependent, inducible regulatory T cell (iTreg) model of IL-17-dependent neutrophilic asthma, ovalbumin (OVA) sensitized recipient CD8α^−/− mice are administered iTreg cells intratracheally (i.t.) on Day 26 after the first OVA challenge and subsequently challenged with OVA on Days 26–28[48] (Fig. 5A). This model elicits TH17-dependent IL-17 release that promotes airway neutrophilia and enhanced airway hyperresponsiveness (AHR) to inhaled methacholine. We investigated the effect of JT002 at two doses in OVA sensitized, OVA challenged and iTreg transferred CD8α^−/− mice. JT002 was administered to mice once daily (QD) by oral gavage (p.o.) on Days 23–29 at 2.5 mg/kg (n = 3/group) and at 25 mg/kg (n = 7/group) before evaluation of airway hyperresponsiveness (AHR) and airway inflammation on Day 30 (Fig. 5A). Additional control groups included vehicle treated disease animals (OVA/OVA + iTregs; n = 7/group), OVA sensitized, OVA challenged control animals (OVA/OVA; n = 6/group) and phosphate buffer saline (PBS) sensitized, OVA challenged animals (PBS/OVA; n = 4/group). […] Sensitization and challenge with OVA led to an increase in total serum IgE as well as OVA-specific serum IgE, IgG1 and IgG2b even in the absence of iTreg instillation (Fig. 5E, Supplementary Fig. 4C).
CD4^+CD25^− T cells were enriched from spleens of naïve C57BL/6 mice to > 98% purity with MACS beads (Miltenyi Biotec, Bergisch-Gladbach, Germany). Cells were washed, counted, and resuspended to a final concentration of 4 × 10^6 cells per mL and cultured in X-Vivo 15 (Lonza, Wakersville, MD) supplemented with 5 ng/mL IL-2 and stimulated with bound anti-CD3 and 2 μg/mL soluble anti-CD28 with 5 ng/mL TGF-β for five to seven days to generate iTregs. Female CD8α^−/− C57BL6/j mice were sensitized by intraperitoneal injection of 20 μg OVA (Sigma Aldrich, St. Louis, MO) emulsified in 2.25 mg alum hydroxide (Imject Alum, Pierce, Rockford, IL) in a total volume of 100 μL on Days 0 and 14. Sensitized and challenged mice, denoted OVA/OVA, and non-sensitized but challenged littermates (PBS/OVA) received aerosol challenges for 20 min each day on three consecutive days (Days 26–28) with 1% OVA in PBS using an ultrasonic nebulizer (Omron, Vernon Hills, IL). On Day 26, differentiated iTregs cells generated in vitro were washed and adoptively transferred (5 × 10^5 in 50 μL of PBS) into OVA/OVA mice, denoted as OVA/OVA + iTregs. OVA/OVA + iTregs mice were dosed orally with JT002 at 2.5 or 25 mg/kg once daily on Days 23–29 or with vehicle (0.5% methyl cellulose, 0.25% Tween 80 in 50 mM NaH2PO4/Na2HPO4 at pH 8).
Determination of airway hyperresponsiveness (AHR) AHR was assessed on Day 30 (iTreg model) or 3 h after the O3 exposure (ozone model) as a change in airway resistance (cm H2O/mL/s) after challenge with aerosolized methacholine with using a whole body plethysmograph-based system (National Jewish Medical and Research Center, Denver, CO). Methacholine aerosol was administered by nebulization in increasing concentrations (12.5–100 mg/mL) and RL was continuously computed by fitting flow, volume, and pressure to an equation of motion (Labview, National Instruments, Dallas, TX). Bronchoalveolar Lavage Immediately after assessment of AHR, lungs were lavaged via the tracheal tube with 1 mL of Hanks’ balanced salt solution (Gibco, Grand Island, NY). Total cell numbers were counted. Differential cell counts for neutrophils and macrophages were performed in a blinded fashion by counting at least 200 cells on cytocentrifuged preparations (Model Cytospin 3, Shandon Ltd, Runcorn, UK) stained with Leukostat (Fisher Diagnostics, Fair Lawn, NJ). Cell-free BAL fluid was stored at − 80 °C until measurements of cytokine levels by ELISA (eBioscience, San Diego, CA) were performed. Blood Collection Immediately following AHR measurement, mice were euthanized by exsanguination and blood collected for serum. Samples were stored at − 80 °C for subsequent measurement of immunoglobulin levels by ELISA. […]

[3] = low dose 2.5 mg/kg p.o. QD Days 23–29

Cmax ([1]; single 1 mg oral dose, read-out: maximum drug plasma concentration (Cmax)): 9 µM
AUC ([1]; iv, 1 mg/kg): 10600 ng·h/mL
half-life ([1]; iv, 1 mg/kg): 1.1 h
clearance ([1]; iv, i.v., 1 mg/kg, read-out: Clpl (plasma clearance)): 1.8 mL/min/kg
Cmax ([1]; iv, i.v., 1 mg/kg, read-out: Cmax): 7000 ng/mL
Vd ([1]; iv, i.v., 1 mg/kg, read-out: Vss): 0.2 L/kg
AUC ([1]; po, 1 mg/kg): 11600 ng·h/mL
half-life ([1]; po, 1 mg/kg): 1.4 h
Tmax ([1]; po, 1 mg/kg, median): 1 h
Cmax ([1]; po, p.o., 1 mg/kg, read-out: Cmax): 4000 ng/mL
bioavailability ([1]; po, p.o., 1 mg/kg, sodium salt form, read-out: %F (oral bioavailability)): 100%
Compound: CO[C@@H]1COc2c(S(=O)(=O)NC(=O)Nc3c4c(cc5c3CCC5)CCC4)cnn2C1 [JT002]
direct inhibition of caspase-1 enzymatic activity (caspase-1): not a direct inhibitor of caspase-1 enzymatic activity
BAL IL-6 concentration ([2]; 25 mg/kg p.o. QD Days 23–29): significantly decreased
BAL IL-10 concentration ([2]; 25 mg/kg p.o. QD Days 23–29): strong trend for increased
BAL IL-17 concentration ([2]; 25 mg/kg p.o. QD Days 23–29): significantly decreased
BAL INFγ concentration ([2]; 25 mg/kg p.o. QD Days 23–29): increased
airway eosinophilia ([2]; 25 mg/kg p.o. QD Days 23–29): no effect
airway hyperresponsiveness (AHR) ([2]; 25 mg/kg p.o. QD Days 23–29): significantly decreased
airway neutrophilia ([2]; 25 mg/kg p.o. QD Days 23–29): significantly decreased
submucosal inflammatory cell infiltration ([2]; 25 mg/kg p.o. QD Days 23–29): visibly decreased
serum OVA-specific IgE ([2]; high dose (25 mg/kg)): significant decrease
serum OVA-specific IgG isoforms ([2]; high dose (25 mg/kg)): no significant effect
serum total IgE ([2]; high dose (25 mg/kg)): significant decrease
airway hyperresponsiveness (AHR) [2, 3]: no significant changes
airway inflammation [2, 3]: no significant changes
